Measured values taken from patent publication US8198330B2, “Therapeutic or prophylactic agent for diabetes, obesity, dyslipidemia or metabolic syndrome comprising benzylamine derivative or pharmaceutically acceptable acid addition salt thereof” (Toray Industries, Inc., priority 2008, dated 2012).

Test system: anesthetized dog
Assay: Effect on electrocardiogram of anesthetized dog
Assay type: in vivo
Conditions: for QTc: Fridericia
Procedure: A male beagle and a female beagle of 11 months of age were used in the test. A beagle was anesthetized by intravenous administration of thiopental sodium at 25 mg/kg, and fixed at the dorsal position under anesthesia by isoflurane inhalation with oxygen-nitrous oxide gas (1:1). Artificial respiration was carried out under the condition of 20 mL/kg and 15 times/minute. In measurement of the electrocardiogram, bipolar extremity leads (I, II and III) and augmented unipolar extremity leads (aVR, aVL and aVF) were recorded and QT interval determined by using an electrocardiogram analyzer for animals (α6000AX-D, Fukuda M-E Kogyo Co., Ltd.), as needle electrodes were placed on four extremities.
The QTc value was calculated according to the Fridericia's formula: QTc=QT/^3√{square root over ( )}(R−R). For observation of arrhythmia in electrocardiographic waveform during test, compression electrocardiogram was printed out from the small memory card by using a long-term electrocardiogram analyzer (HS1000 system, Fukuda M-E Kogyo Co., Ltd.). The samples of the compound of Example 1 were prepared by dissolving the compound in physiological saline at concentrations of 12 mg/mL, 4 mg/mL and 1.2 mg/mL. After confirmation of stabilization of the electrocardiogram, the sample was administered through a needle (22G) previously placed in the side forearm subcutaneous vein, by using an automatic injector (Harvard digital infusion pump MODEL-22, HARVARD […]) over a period of 10 minutes.
First, vehicle (physiological saline) was administered in an amount of 0.5 mL/kg and then, after 35 minutes, 1.2 mg/mL physiological saline solution of the compound of Example 1 was administered in an amount of 0.5 mL/kg. Additionally, 4 mg/mL or 12 mg/mL physiological saline solution of the compound of Example 1 was administered in an amount of 0.5 mL/kg at an interval of 65 minutes after administration. The QT interval and the QTc value were measured, in each administration above, 5 minutes before administration, immediately before start of administration, as well as 5, 10, 15 and 30 minutes after start of administration. Thus, the measured value 30 or 60 minutes after start of previous administration corresponds to the value 5 minutes before start of administration for the following application.

[1] = Individual 1 (male), 0.6 mg/kg/10 min i.v., 0 min (immediately before start of administration)
[2] = Individual 1 (male), 0.6 mg/kg/10 min i.v., 5 min after start of administration
[3] = Individual 1 (male), 0.6 mg/kg/10 min i.v., 10 min after start of administration
[4] = Individual 1 (male), 0.6 mg/kg/10 min i.v., 15 min after start of administration
[5] = Individual 1 (male), 0.6 mg/kg/10 min i.v., 30 min after start of administration
[6] = Individual 1 (male), 0.6 mg/kg/10 min i.v., 45 min after start of administration
[7] = Individual 1 (male), 0.6 mg/kg/10 min i.v., 60 min after start of administration
[8] = Individual 1 (male), 2 mg/kg/10 min i.v., 0 min (immediately before start of administration)
[9] = Individual 1 (male), 2 mg/kg/10 min i.v., 5 min after start of administration
[10] = Individual 1 (male), 2 mg/kg/10 min i.v., 10 min after start of administration
[11] = Individual 1 (male), 2 mg/kg/10 min i.v., 15 min after start of administration
[12] = Individual 1 (male), 2 mg/kg/10 min i.v., 30 min after start of administration
[13] = Individual 1 (male), 2 mg/kg/10 min i.v., 45 min after start of administration
[14] = Individual 1 (male), 2 mg/kg/10 min i.v., 60 min after start of administration
[15] = Individual 1 (male), 6 mg/kg/10 min i.v., 0 min (immediately before start of administration)
[16] = Individual 1 (male), 6 mg/kg/10 min i.v., 5 min after start of administration
[17] = Individual 1 (male), 6 mg/kg/10 min i.v., 10 min after start of administration
[18] = Individual 1 (male), 6 mg/kg/10 min i.v., 15 min after start of administration
[19] = Individual 1 (male), 6 mg/kg/10 min i.v., 30 min after start of administration
[20] = Individual 1 (male), 6 mg/kg/10 min i.v., 45 min after start of administration
[21] = Individual 1 (male), 6 mg/kg/10 min i.v., 60 min after start of administration
[22] = Individual 2 (female), 0.6 mg/kg/10 min i.v., 0 min (immediately before start of administration)
[23] = Individual 2 (female), 0.6 mg/kg/10 min i.v., 5 min after start of administration
[24] = Individual 2 (female), 0.6 mg/kg/10 min i.v., 10 min after start of administration
[25] = Individual 2 (female), 0.6 mg/kg/10 min i.v., 15 min after start of administration
[26] = Individual 2 (female), 0.6 mg/kg/10 min i.v., 30 min after start of administration
[27] = Individual 2 (female), 0.6 mg/kg/10 min i.v., 45 min after start of administration
[28] = Individual 2 (female), 0.6 mg/kg/10 min i.v., 60 min after start of administration
[29] = Individual 2 (female), 2 mg/kg/10 min i.v., 0 min (immediately before start of administration)
[30] = Individual 2 (female), 2 mg/kg/10 min i.v., 5 min after start of administration
[31] = Individual 2 (female), 2 mg/kg/10 min i.v., 10 min after start of administration
[32] = Individual 2 (female), 2 mg/kg/10 min i.v., 15 min after start of administration
[33] = Individual 2 (female), 2 mg/kg/10 min i.v., 30 min after start of administration
[34] = Individual 2 (female), 2 mg/kg/10 min i.v., 45 min after start of administration
[35] = Individual 2 (female), 2 mg/kg/10 min i.v., 60 min after start of administration
[36] = Individual 2 (female), 6 mg/kg/10 min i.v., 0 min (immediately before start of administration)
[37] = Individual 2 (female), 6 mg/kg/10 min i.v., 5 min after start of administration
[38] = Individual 2 (female), 6 mg/kg/10 min i.v., 10 min after start of administration
[39] = Individual 2 (female), 6 mg/kg/10 min i.v., 15 min after start of administration
[40] = Individual 2 (female), 6 mg/kg/10 min i.v., 30 min after start of administration
[41] = Individual 2 (female), 6 mg/kg/10 min i.v., 45 min after start of administration
[42] = Individual 2 (female), 6 mg/kg/10 min i.v., 60 min after start of administration
[43] = anesthetized beagle, i.v. 0.6, 2 and 6 mg/kg/10 min

## COc1cc(CN[C@@H](C)[C@H](O)c2ccc(O)c(NS(C)(=O)=O)c2)cc(OC)c1 [Example 1, N-(5-((1R,2S)-2-(3,5-Dimethoxybenzylamino)-1-hydroxypropyl)-2-hydroxyphenyl)methanesulfonamide]
[1]
  QT interval: 241 ms
  QTc: 303 ms
[2]
  QT interval: 228 ms
  QTc: 299 ms
[3]
  QT interval: 210 ms
  QTc: 287 ms
[4]
  QT interval: 205 ms
  QTc: 280 ms
[5]
  QT interval: 213 ms
  QTc: 290 ms
[6]
  QT interval: 220 ms
  QTc: 296 ms
[7]
  QT interval: 221 ms
  QTc: 294 ms
[8]
  QT interval: 218 ms
  QTc: 293 ms
[9]
  QT interval: 203 ms
  QTc: 283 ms
[10]
  QT interval: 203 ms
  QTc: 283 ms
[11]
  QT interval: 213 ms
  QTc: 294 ms
[12]
  QT interval: 218 ms
  QTc: 297 ms
[13]
  QT interval: 221 ms
  QTc: 299 ms
[14]
  QT interval: 225 ms
  QTc: 304 ms
[15]
  QT interval: 220 ms
  QTc: 296 ms
[16]
  QT interval: 210 ms
  QTc: 292 ms
[17]
  QT interval: 211 ms
  QTc: 294 ms
[18]
  QT interval: 210 ms
  QTc: 291 ms
[19]
  QT interval: 211 ms
  QTc: 291 ms
[20]
  QT interval: 235 ms
  QTc: 320 ms
[21]
  QT interval: 226 ms
  QTc: 305 ms
[22]
  QT interval: 240 ms
  QTc: 293 ms
[23]
  QT interval: 243 ms
  QTc: 315 ms
[24]
  QT interval: 236 ms
  QTc: 310 ms
[25]
  QT interval: 223 ms
  QTc: 296 ms
[26]
  QT interval: 218 ms
  QTc: 297 ms
[27]
  QT interval: 211 ms
  QTc: 288 ms
[28]
  QT interval: 213 ms
  QTc: 292 ms
[29]
  QT interval: 215 ms
  QTc: 293 ms
[30]
  QT interval: 210 ms
  QTc: 292 ms
[31]
  QT interval: 210 ms
  QTc: 289 ms
[32]
  QT interval: 210 ms
  QTc: 288 ms
[33]
  QT interval: 225 ms
  QTc: 303 ms
[34]
  QT interval: 220 ms
  QTc: 298 ms
[35]
  QT interval: 221 ms
  QTc: 299 ms
[36]
  QT interval: 220 ms
  QTc: 296 ms
[37]
  QT interval: 215 ms
  QTc: 293 ms
[38]
  QT interval: 211 ms
  QTc: 289 ms
[39]
  QT interval: 215 ms
  QTc: 292 ms
[40]
  QT interval: 213 ms
  QTc: 289 ms
[41]
  QT interval: 226 ms
  QTc: 303 ms
[42]
  QT interval: 220 ms
  QTc: 294 ms
[43]
  arrhythmia in electrocardiographic waveform: no arrhythmia observed
  prolongation of the QT interval: did not cause prolongation of the QT interval
